{
  "source": "patent US20140005216A1",
  "about": "“Nalmefene for reduction of alcohol consumption in specific target populations” (H. Lundbeck A/S, priority 2012, published 2014)",
  "key": {"[1]": {"tested_on": "alcohol dependence", "settings": "20 mg taken when the patient experienced a craving for alcohol; Karhuvaara et al. 2007; cited from earlier work"}, "[2]": {"tested_on": "patients with alcohol dependence", "experiment": "Study 12014A: randomised, double blind, placebo controlled 6 month efficacy study, reduction of alcohol consumption", "format": "in vivo, human", "settings": "nalmefene 18 mg as-needed, MMRM", "procedure": "(§1) The efficacy of nalmefene on the reduction of alcohol consumption in patients with alcohol dependence (DSM-IV) was evaluated in two efficacy studies (Study 12014A and Study 12023A). Both studies were randomised, double blind, two-parallel group, placebo controlled, and after 6 months of treatment, patients receiving nalmefene were re-randomised to receive either placebo or nalmefene in a 1 month run out period. The efficacy of nalmefene was also evaluated in a randomised, double blind, two parallel group, placebo controlled 1 year safety study (Study 12013A). The studies included 1941 patients, 1144 of whom were treated with nalmefene 18 mg in an as-needed dosing regimen.\n(§2) The studies were conducted applying an outpatient setting without preceding detoxification. Higher CIWA withdrawal scores at Screening as well as a history of delirium tremens and seizures would be indicative for the necessity of prior inpatient detoxification. Patients with abuse of substance other than alcohol and subjects with significant depressive or psychotic co-morbidity were excluded.\n(§3) The studies included outpatients, aged ≧18 years, with a primary diagnosis of alcohol dependence. A patient was eligible for participation in the study if, in the 4 weeks preceding the Screening Visit (Baseline period), he/she had >6 HDDs, at least a medium DRL (calculated as mean daily alcohol consumption in g/day i.e. >40 g/day for men and >20 g/day for women calculated as mean daily alcohol consumption over the 4 week period preceding the screening visit), and ≦14 consecutive abstinent days. The timeline followback (TLFB) method was used to obtain estimates of the patient's daily drinking.\n(§4) The studies were conducted over a 34 week period (12 visits) in total and consisted of four sequential periods: a 2-week screening period, a 24-week double-blind treatment period, a 4-week double-blind placebo-controlled run-out in each of the treatment arms and finally a 4-week safety follow-up. One to two weeks after the Screening Visit the patients were randomised 1:1 to 24 weeks of as-needed, double-blind treatment (Main Treatment Period: MTP) with nalmefene (18 mg) or placebo. The patients who completed 24 weeks of double-blind treatment entered a 4-week, double-blind Run-out Period (ROP). The patients randomised to nalmefene were re-randomised 1:1 to receive nalmefene (18 mg, as-needed) or placebo and the patients randomised to placebo continued on placebo.\n(§5) The Timeline Follow-back (TLFB) method was used to collect self-reported drinking data (alcohol consumption).\n(§6) At the initial visit, the patients' clinical status, social situation, and alcohol consumption pattern were evaluated (based on patient reporting). After a 1- to 2-week observation period the drinking risk level was re-assessed (i.e. the […] daily alcohol consumption over the 1-2 week assessment period was calculated), and treatment with nalmefene was initiated together with counseling with focus on motivating the patients to adhere to the treatment and to change their drinking behavior. In all the studies, a motivational and adherence enhancing intervention, according to the BRENDA model, was administered to all the patients to support the patients in changing their behavior and to enhance adherence to treatment.\n(§7) The patients' alcohol intake (g/day) was estimated based on national definitions of standard units (subsequently converted into grams of alcohol). To define the standard units, a standard drink conversion card was distributed to each patient at the Screening Visit. Each patient was also provided with a calendar that he/she could use to support his/her input to the TLFB, or he/she could use a personal calendar, if preferred. For all the variables derived from the TLFB data, baseline was defined as the month (that is 4 weeks/28 consecutive days) preceding the Screening Visit. The investigational medicinal product (IMP) was taken as-needed. […]"}, "[3]": {"tested_on": "alcohol dependence", "settings": "5, 20 and 40 mg daily doses; Anton et al. 2004; cited from earlier work"}, "[4]": {"tested_on": "patients with alcohol dependence", "experiment": "Study 12013A: randomised, double blind, placebo controlled 1 year safety study, reduction of alcohol consumption", "format": "in vivo, human", "settings": "nalmefene 18 mg as-needed, MMRM", "procedure": "as §1, §2, §3, §5, §6\nThe patients' alcohol intake (g/day) was estimated based on national definitions of standard units (subsequently converted into grams of alcohol). To define the standard units, a standard drink conversion card was distributed to each patient at the Screening Visit. Each patient was also provided with a calendar that he/she could use to support his/her input to the TLFB, or he/she could use a personal calendar, if preferred. For all the variables derived from the TLFB data, baseline was defined as the month (that is 4 weeks/28 consecutive days) preceding the Screening Visit. The investigational medicinal product (IMP) was taken as-needed. Each patient was instructed to take a maximum of one tablet on each day the patient perceived a risk of drinking alcohol, preferably 1 to 2 hours prior to the anticipated time of drinking. If the patient had started drinking alcohol without taking nalmefene, the patient was to take one tablet as soon as possible. The dates when nalmefene was taken/not taken were recorded using the TLFB method. The chosen comparator was placebo\nThe efficacy of nalmefene was measured using two co-primary endpoints: the change in the monthly number of heavy drinking days (HDDs) and the change in the mean daily total alcohol consumption (TAC) per month (=28 days). A HDD was defined as a day with a consumption ≧60 g alcohol for men and ≧40 g for women. […]"}, "[5]": {"tested_on": "patients with alcohol dependence", "experiment": "Three Lundbeck phase III studies (12014A, 12023A, 12013A) taken together, HDDs and TAC versus placebo", "format": "in vivo, human", "settings": "for Effect on HDDs and TAC compared to placebo, relative to the total population: all three studies", "text": "The efficacy of nalmefene in the reduction of alcohol consumption in patients with alcohol dependence (DSM-IV) has been evaluated in two efficacy studies (Study 12014A and Study 12023A) and one safety study (Study 12013A) as described in the examples. All three studies were randomized, double blind, parallel-group and placebo-controlled.\nas §3, with “aged” for “aged ≧18”\nAt the initial visit (screening visit), the patients' clinical status, social situation, and alcohol consumption pattern were evaluated. After a 1- to 2-week observation period the drinking risk level was re-assessed by calculating mean daily alcohol consumption in g/day over the 1- to 2-week observation period, and treatment with nalmefene was initiated together with counseling with focus on motivating the patients to adhere to the treatment and to change their drinking behavior.\nThe efficacy of nalmefene was measured using two co-primary endpoints: the change in the monthly number of heavy drinking days (HDDs) and the change in the mean daily total alcohol consumption (TAC) per month (=28 days).\nThe efficacy of nalmefene on the reduction of alcohol consumption in patients with alcohol dependence (DSM-IV) was evaluated in two efficacy studies (Study 12014A and Study 12023A). […] The efficacy of nalmefene was also evaluated in a randomised, double blind, two parallel group, placebo controlled 1 year safety study (Study 12013A). […]\nas §3, with “The timeline followback (TLFB) method was used to obtain estimates of the patient's daily drinking.” left out\nAt the initial visit, the patients' clinical status, social situation, and alcohol consumption pattern were evaluated (based on patient reporting). […]"}, "[6]": {"tested_on": "alcohol dependence", "settings": "20 to 80 mg daily oral dosing; Mason et al. 1999; cited from earlier work"}, "[7]": {"tested_on": "patients with alcohol dependence", "experiment": "Study 12023A: randomised, double blind, placebo controlled 6 month efficacy study, reduction of alcohol consumption", "format": "in vivo, human", "settings": "nalmefene 18 mg as-needed, MMRM", "procedure": "as §1, §2, §3, §4, §5, §6, §7"}, "[8]": {"settings": "High DRL at baseline & randomisation"}},
  "note": "“Also recorded” adds a separate entry of the source.",
  "data": [
    {"smiles": "C=C1CC[C@@]2(O)[C@H]3Cc4ccc(O)c5c4[C@@]2(CCN3CC2CC2)[C@H]1O5", "note": "[nalmefene, 17-(cyclopropylmethyl)-4,5-alpha-epoxy-6-methylenemorphinan-3,14-dial]", "values": [
      {"measurement": "Effect over placebo in the management of alcohol dependence", "setting": "[1]", "value": "good effect of nalmefene over placebo"},
      {"measurement": "Mean difference to placebo in the change from baseline to month 6, HDD", "setting": "[2]; [8]", "value": "−3.7", "unit": "days/month"},
      {"measurement": "Mean difference to placebo in the change from baseline to month 6, TAC", "setting": "[2]; [8]", "value": -18.3, "unit": "g/day"},
      {"measurement": "Mean difference to placebo in the change from baseline to month 6, HDD", "setting": "[2]; High DRL at baseline", "value": "−2.6", "unit": "days/month"},
      {"measurement": "Mean difference to placebo in the change from baseline to month 6, TAC", "setting": "[2]; High DRL at baseline", "value": -12.2, "unit": "g/day"},
      {"measurement": "Mean difference to placebo in the change from baseline to month 6, HDD", "setting": "[2]; Total excl. ERs", "value": "−3.1", "unit": "days/month"},
      {"measurement": "Mean difference to placebo in the change from baseline to month 6, TAC", "setting": "[2]; Total excl. ERs", "value": -14.5, "unit": "g/day"},
      {"measurement": "Mean difference to placebo in the change from baseline to month 6, HDD", "setting": "[2]; Total population", "value": "−2.3", "unit": "days/month"},
      {"measurement": "Mean difference to placebo in the change from baseline to month 6, TAC", "setting": "[2]; Total population", "value": -11.0, "unit": "g/day"},
      {"measurement": "Superiority over placebo in the management of alcohol dependence", "setting": "[3]", "value": "no evidence of superiority of nalmefene over placebo"},
      {"measurement": "Mean difference to placebo in the change from baseline to month 6, HDD", "setting": "[4]; [8]", "value": "−2.6", "unit": "days/month"},
      {"measurement": "Mean difference to placebo in the change from baseline to month 6, TAC", "setting": "[4]; [8]", "value": -15.3, "unit": "g/day"},
      {"measurement": "Mean difference to placebo in the change from baseline to month 6, HDD", "setting": "[4]; High DRL at baseline", "value": "−1.1", "unit": "days/month"},
      {"measurement": "Mean difference to placebo in the change from baseline to month 6, TAC", "setting": "[4]; High DRL at baseline", "value": -5.6, "unit": "g/day"},
      {"measurement": "Mean difference to placebo in the change from baseline to month 6, HDD", "setting": "[4]; Total excl. ERs", "value": "−1.4", "unit": "days/month"},
      {"measurement": "Mean difference to placebo in the change from baseline to month 6, TAC", "setting": "[4]; Total excl. ERs", "value": -7.9, "unit": "g/day"},
      {"measurement": "Mean difference to placebo in the change from baseline to month 6, HDD", "setting": "[4]; Total population", "value": "−0.9", "unit": "days/month"},
      {"measurement": "Mean difference to placebo in the change from baseline to month 6, TAC", "setting": "[4]; Total population", "value": -3.5, "unit": "g/day"},
      {"measurement": "Reducing the number of HDDs and TAC versus placebo", "setting": "[5]; month 6, total study population, two 6 month efficacy studies and 12 month safety study", "value": "superior to placebo"},
      {"measurement": "Effect on HDDs and TAC compared to placebo, relative to the total population", "setting": "[5]; patients that were not ERs (total excluding Early Reducers)", "value": "more pronounced"},
      {"measurement": "Effect on HDDs and TAC compared to placebo, relative to the total population", "setting": "[5]; patients with a high DRL at baseline", "value": "more pronounced"},
      {"measurement": "Effect on HDDs and TAC compared to placebo, relative to the total population", "setting": "[5]; patients with a high DRL both at baseline and at randomisation", "value": "more pronounced; also recorded: even further pronounced"},
      {"measurement": "Effect in the management of alcohol dependence", "setting": "[6]", "value": "good effect"},
      {"measurement": "Mean difference to placebo in the change from baseline to month 6, HDD", "setting": "[7]; [8]", "value": "−2.7", "unit": "days/month"},
      {"measurement": "Mean difference to placebo in the change from baseline to month 6, TAC", "setting": "[7]; [8]", "value": -10.3, "unit": "g/day"},
      {"measurement": "Mean difference to placebo in the change from baseline to month 6, HDD", "setting": "[7]; High DRL at baseline", "value": "−2.1", "unit": "days/month"},
      {"measurement": "Mean difference to placebo in the change from baseline to month 6, TAC", "setting": "[7]; High DRL at baseline", "value": -6.6, "unit": "g/day"},
      {"measurement": "Mean difference to placebo in the change from baseline to month 6, HDD", "setting": "[7]; Total excl. ERs", "value": "−2.0", "unit": "days/month"},
      {"measurement": "Mean difference to placebo in the change from baseline to month 6, TAC", "setting": "[7]; Total excl. ERs", "value": -7.0, "unit": "g/day"},
      {"measurement": "Mean difference to placebo in the change from baseline to month 6, HDD", "setting": "[7]; Total population", "value": "−1.7", "unit": "days/month"},
      {"measurement": "Mean difference to placebo in the change from baseline to month 6, TAC", "setting": "[7]; Total population", "value": -5.0, "unit": "g/day"}
    ]}
  ]
}
